Tested on: Rattus norvegicus
Experiment: Gastrointestinal toxicity in Rattus norvegicus (rat) assessed as incidence of melena at 200 umol/kg, sc qd for 4 days
Assay type: organism-based
Conditions: in vivo, 96 h

SMILES | Activity [%]
CC(C(=O)O)c1cccc(C(=O)c2ccccc2)c1 (configuration not stated) [KETOPROFEN] | 100
CC(C(=O)OCCCc1cccnc1)c1cccc(C(=O)c2ccccc2)c1 (configuration not stated) | 60

Tested on: Rattus norvegicus
Experiment: Toxicity in Rattus norvegicus (rat) assessed as body weight change per 100 gram body weight at 200 umol/kg, sc qd for 4 days
Assay type: organism-based
Conditions: in vivo, 96 h

SMILES | Activity [g]
CC(C(=O)O)c1cccc(C(=O)c2ccccc2)c1 (configuration not stated) [KETOPROFEN] | -24
CC(C(=O)OCCCc1cccnc1)c1cccc(C(=O)c2ccccc2)c1 (configuration not stated) | -13

Tested on: Rattus norvegicus
Experiment: Gastrointestinal toxicity in Rattus norvegicus (rat) assessed as perforating ulcers at 200 umol/kg, sc qd for 4 days
Assay type: organism-based
Conditions: in vivo, 96 h

SMILES | Activity [%]
CC(C(=O)O)c1cccc(C(=O)c2ccccc2)c1 (configuration not stated) [KETOPROFEN] | 85
CC(C(=O)OCCCc1cccnc1)c1cccc(C(=O)c2ccccc2)c1 (configuration not stated) | 50

Tested on: not listed separately
Experiment: Toxicity in Rattus norvegicus (rat) assessed as mortality at 200 umol/kg, sc qd for 4 days
Assay type: organism-based
Conditions: in vivo

SMILES | mortality at 96 h [%]
CC(C(=O)O)c1cccc(C(=O)c2ccccc2)c1 (configuration not stated) [KETOPROFEN] | 50
CC(C(=O)OCCCc1cccnc1)c1cccc(C(=O)c2ccccc2)c1 (configuration not stated) | 33

Tested on: Liver microsome
Experiment: Antioxidant activity in Rattus norvegicus (rat) liver microsomal fraction assessed as inhibition of lipid peroxidation after 45 min by spectrophotometric analysis
Assay type: functional, microsomes
Conditions: 0.75 h

SMILES | IC50 [µM]
CC(C(=O)NCCS)c1cccc(C(=O)c2ccccc2)c1 (configuration not stated) | 650
CCOC(=O)C(CS)NC(=O)C1CCCCN1C(=O)Cc1c(C)[nH]c2ccc(OC)cc12 (configuration not stated) | 8
CCOC(=O)C(CS)NC(=O)C1CCCN1C(=O)C(C)c1cccc(C(=O)c2ccccc2)c1 (configuration not stated) | 440

Target: T1, Prostaglandin G/H synthase 1 (Ovis aries) (UniProt P05979)
T1 sequence (whole entry): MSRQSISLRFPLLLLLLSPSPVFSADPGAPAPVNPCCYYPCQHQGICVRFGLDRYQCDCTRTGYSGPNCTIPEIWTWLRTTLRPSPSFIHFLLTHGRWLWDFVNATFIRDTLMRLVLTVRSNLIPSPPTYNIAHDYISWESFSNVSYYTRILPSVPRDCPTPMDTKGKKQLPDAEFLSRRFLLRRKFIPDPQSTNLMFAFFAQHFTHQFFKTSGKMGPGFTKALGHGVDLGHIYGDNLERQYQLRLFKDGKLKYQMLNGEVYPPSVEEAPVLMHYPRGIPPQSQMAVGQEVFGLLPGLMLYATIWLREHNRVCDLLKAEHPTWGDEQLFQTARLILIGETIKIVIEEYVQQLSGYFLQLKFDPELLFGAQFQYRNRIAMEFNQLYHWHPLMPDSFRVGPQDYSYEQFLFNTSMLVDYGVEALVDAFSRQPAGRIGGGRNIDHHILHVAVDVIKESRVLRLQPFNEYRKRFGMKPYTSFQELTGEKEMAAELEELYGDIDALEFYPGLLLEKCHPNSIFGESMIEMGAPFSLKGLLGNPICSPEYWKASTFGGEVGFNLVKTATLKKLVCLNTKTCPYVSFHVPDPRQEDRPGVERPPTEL
Experiment: Inhibition of Ovis aries (sheep) COX1 assessed as formation of PGF2a at 200 uM by enzyme immunoassay
Conditions: not given

SMILES | inhibition [%]
COc1ccc2cc(C(C)C(=O)OCCCc3cccnc3)ccc2c1 (configuration not stated) | 71
COc1ccc2cc(C(C)C(=O)N3CCCC3C(=O)Oc3ccc(C)cc3OC)ccc2c1 (configuration not stated) | 16
CC(C(=O)O)c1cccc(C(=O)c2ccccc2)c1 (configuration not stated) [KETOPROFEN] | 86
COc1ccc2cc([C@H](C)C(=O)O)ccc2c1 [NAPROXEN] | 52
CC(C(=O)OCCCc1cccnc1)c1cccc(C(=O)c2ccccc2)c1 (configuration not stated) | 87

Target: T2, Seed linoleate 13S-lipoxygenase-1 (Glycine max, UniProt P08170)
T2 sequence (P08170 whole entry): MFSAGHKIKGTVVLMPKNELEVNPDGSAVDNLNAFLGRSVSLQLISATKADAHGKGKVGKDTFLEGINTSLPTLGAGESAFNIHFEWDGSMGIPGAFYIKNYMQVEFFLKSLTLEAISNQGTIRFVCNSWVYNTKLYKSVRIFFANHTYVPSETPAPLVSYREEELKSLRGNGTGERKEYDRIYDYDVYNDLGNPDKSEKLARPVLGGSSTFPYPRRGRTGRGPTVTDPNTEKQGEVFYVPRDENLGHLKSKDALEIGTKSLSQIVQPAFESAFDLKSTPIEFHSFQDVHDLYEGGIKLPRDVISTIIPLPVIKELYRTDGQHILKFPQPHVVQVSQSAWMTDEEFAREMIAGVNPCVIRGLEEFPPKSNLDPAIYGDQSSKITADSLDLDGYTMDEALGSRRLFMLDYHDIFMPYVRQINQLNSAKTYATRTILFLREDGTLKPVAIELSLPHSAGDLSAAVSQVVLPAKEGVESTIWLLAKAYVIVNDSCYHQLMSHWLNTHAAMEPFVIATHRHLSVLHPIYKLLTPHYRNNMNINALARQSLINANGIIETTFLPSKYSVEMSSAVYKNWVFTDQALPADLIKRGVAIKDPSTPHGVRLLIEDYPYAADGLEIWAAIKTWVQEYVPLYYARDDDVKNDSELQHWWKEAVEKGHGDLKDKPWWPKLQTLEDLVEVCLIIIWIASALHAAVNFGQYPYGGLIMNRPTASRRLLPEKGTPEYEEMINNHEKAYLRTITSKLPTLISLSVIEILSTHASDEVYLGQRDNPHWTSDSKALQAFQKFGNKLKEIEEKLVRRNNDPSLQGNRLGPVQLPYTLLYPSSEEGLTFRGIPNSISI
Experiment: Inhibition of Glycine max (soybean) lipoxygenase assessed as formation of 13-hydroperoxylinoleic acid using sodium linoleate as substrate after 7 min
Conditions: not given

SMILES | IC50 [µM]
COc1ccc2cc(C(C)C(=O)OCCCc3cccnc3)ccc2c1 (configuration not stated) | 28
COc1ccc2cc(C(C)C(=O)N3CCCC3C(=O)OCCCc3cccnc3)ccc2c1 (configuration not stated) | 46
CCOC(=O)C(CS)NC(=O)C1CCCN1C(=O)C(C)c1cccc(C(=O)c2ccccc2)c1 (configuration not stated) | 170
COc1ccc2cc(C(C)C(=O)Oc3ccc(C)cc3OC)ccc2c1 (configuration not stated) | 90
COc1cc(C)ccc1OC(=O)C1CCCN1C(=O)C(C)c1cccc(C(=O)c2ccccc2)c1 (configuration not stated) | 60
CC(C(=O)OCCCc1cccnc1)c1cccc(C(=O)c2ccccc2)c1 (configuration not stated) | 145

Tested on: Rattus norvegicus
Experiment: Anti-inflammatory activity in Rattus norvegicus Fischer-344 (rat) assessed as inhibition of carrageenan-induced paw oedema at 0.30 mmol/kg, ip administered 5 min before […] measured after 3 hr relative to control
Assay type: functional
Conditions: Fischer-344, ip

SMILES | inhibition in vivo at 300 µmol/kg [%]
C[C@H](C(=O)O)c1cccc(C(=O)c2ccccc2)c1 [DEXKETOPROFEN] | 42
CC(C(=O)NCCS)c1cccc(C(=O)c2ccccc2)c1 (configuration not stated) | 39
COc1ccc2cc(C(C)C(=O)OCCCc3cccnc3)ccc2c1 (configuration not stated) | 27
COc1ccc2cc(C(C)C(=O)N3CCCC3C(=O)OCCCc3cccnc3)ccc2c1 (configuration not stated) | 24
CCOC(=O)C(CS)NC(=O)C1CCCN1C(=O)C(C)c1cccc(C(=O)c2ccccc2)c1 (configuration not stated) | 52
COc1ccc2cc(C(C)C(=O)N3CCCC3C(=O)Oc3ccc(C)cc3OC)ccc2c1 (configuration not stated) | 20
COc1ccc2cc(C(C)C(=O)Oc3ccc(C)cc3OC)ccc2c1 (configuration not stated) | 40
COc1cc(C)ccc1OC(=O)C1CCCN1C(=O)C(C)c1cccc(C(=O)c2ccccc2)c1 (configuration not stated) | 13
COc1ccc2cc([C@H](C)C(=O)O)ccc2c1 [NAPROXEN] | 51
CC(C(=O)OCCCc1cccnc1)c1cccc(C(=O)c2ccccc2)c1 (configuration not stated) | 61
